Reference: patent EP0694545B1, “Substituted dibenzoxazepine compounds, pharmaceutical compositions and methods of use” (G.D. SEARLE & CO., priority 1991, dated 1992)

Tests used:
[1] = tested on: Charles River male albino mice; assay: PBQ Writhing Assay (analgesic activity); type: in vivo; settings: for ED50: Mus musculus, po, read-out: PBQ WRITHING ASSAY (ED50 (mpk)) I.G.; for PBQ WRITHING ASSAY I.G. (Active / *): intragastric; for PBQ WRITHING ASSAY I.G. (Active / *) / PBQ WRITHING ASSAY S.C. (Active / *): initial screening dose 30 mg per kilogram, 30 min before PBQ i.p., writhes counted for ten minutes; for PBQ WRITHING ASSAY S.C. (Active / *): subcutaneous
Description: The Writhing Assay is one of the most widely-used experimental procedures for measuring the analgesic activity of different narcotic and nonnarcotic analgesic agents, and involves the continuous, chemically-induced pain of visceral origin to an animal, such as a mouse or rat. [Gyires et al., Arch. int. Pharmacodyn, 267, 131-140 (1984); […] al., Fed. Proc., 15, 494 (1956); Koster et al., Fed. Proc., 18, 412 (1959); and Witken et al., J. Pharmacol. exp. Ther., 133, 400-408 (1961).] Chemicals which may be used to induce this pain include phenylbenzoquinone (PBQ) and acetic acid. As a result of the chemical irritation to the animal, a characteristic stretching and writhing of the animal (dorsiflexion of the animal's back, extension of its hindlimbs and the strong contraction of its abdominal musculature) will generally occur. […] Drugs which reduce the number of writhes of the animal appear to restore the normal nociceptive threshold of the animal. Charles River male albino mice, weighing 20 to 30 grams were used in this assay. Thirty minutes after subcutaneous or intragastric administration to ten mice of 30 mg per kilogram of body weight of a compound of the present invention ("test compound"), […] per 10 g of body weight of a 0.025% w/v solution of PBQ was injected intraperitoneally into each mouse. Ten mice which were given saline in place of a test compound of the invention were used as a control group. Five minutes later, each mouse was individually placed into a glass beaker for observation, and the number of writhes occurring during the following ten-minute period was counted. A test compound was considered to have produced analgesia in a mouse if, in accordance with the conditions set forth above, and under the test criteria employed for this assay, after the administration of 30 mg per kilogram of body weight of a compound of the present invention to the mouse, the number of writhes elicited by a mouse injected with PBQ was equal to, or less than, one-half the median number of writhes recorded for the saline-treated control group of mice that day, as described by Taber in "Predictive Value of Analgesic Assays in Mice and Rats," Advances in Biochemical Psychopharmacology, 8, 191 (1974). The standard initial screening dose of a test compound employed in this assay was […] for both routes of administration. If this initial screening dose of the test compound produced analgesia in seven of ten mice, then the effect of additional doses of the test compound on the writhing response was evaluated, and then the ED50 dose was generally calculated. (The slopes of the dose-response curves for all test compounds analyzed were compared as described by Tallarida and Murray, Manual of Pharmacologic Calculations, Page 11 (Springer Verlag, New York, 1981)).

[2] = tested on: prostaglandin E2-induced contractions of segments of guinea pig ileum; assay: Prostaglandin (PGE) Antagonism Assay in guinea pig ileum; type: cell-based; parameters: key to PGE ANTAGONISM IN GUINEA PIG ILEUM (Active): Active: A concentration of test compound was determined to be "active" if it produced a dose ratio significantly greater than that obtained in a series of blank treatments; settings: for Kb: Cavia porcellus, read-out: PGE ANTAGONISM IN GUINEA PIG ILEUM (pA2) (converted); for PGE ANTAGONISM IN GUINEA PIG ILEUM (Active): initial concentration of test compound, dose ratio of EC50 dose values versus blank treatments
Description: In order to determine the effectiveness of several of the compounds of the present invention ("test compounds") as prostaglandin E2 antagonists, a prostaglandin antagonism assay was conducted, as described below, to determine the ability of these compounds to inhibit prostaglandin E2-induced contractions of segments of guinea pig ileum.
Male albino guinea pigs weighing 200 to 500 grams were sacrificed by cervical dislocation.
The ileums were then quickly removed from the guinea pigs and placed in a modified Tyrode solution, a solution which is known to those of skill in the art, containing one-half of the usual amount of magnesium ions.
Segments of ileum about 2 cm long were then cut and mounted in a 10-mL tissue bath containing the modified Tyrode solution. The solution was maintained at 37°C and aerated with a gaseous mixture of 95% oxygen and 5% carbon dioxide.
Submaximal contractions of the ileum segments were then generated by injecting prostaglandin E2 into the bath, and detected isotonically. Data for a control prostaglandin E2 dose response curve plotting concentration of prostaglandin E2 versus number of contractions generated was then obtained by experimentally adjusting the dose of the prostaglandin E2 being injected into the tissue bath, in a manner known by those of skill in the art.
Solutions or suspensions containing an initial amount of a test compound in modified Tyrode solution ("test solutions/ suspensions") were then separately substituted for the tissue bath. Each test solution/suspension was then kept in constant contact with the ileum tissue, except for brief periods to drain the bath in preparation for rinsing with fresh test solution/suspension. Different doses of prostaglandin E2 were again injected into the test solutions/suspensions.
A second prostaglandin E2 dose response curve was then generated for prostaglandin E2 in the presence of a test compound.
A dose ratio of EC50 dose values was then calculated from the results of each test in a manner known by those of skill in the art. […] Duplicate tests were conducted on each concentration of test compound.
If the initial concentration of a test compound was determined to be "active," then varying concentrations of the test compound were then assayed. As is shown in Table I below, all test compounds analyzed in this assay were determined to be "active" as prostaglandin E2 antagonists at the initial concentration.
The pA2 value (a statistical constant which is a common measure of expressing the potency of a particular drug as a competitive antagonist) was then calculated for each test compound by schild plot calculations, as described by H. O. Schild, "pA, A New Scale for the Measurement of Drug Antagonism," Br. J. Pharmacol, 2, 189 (1947), according to the following mathematical formula: pA2 = -log[Test Compound] to quantitate the effectiveness of the test compounds as prostaglandin E2 antagonists.

For `O=C(CCc1ccccn1)NNC(=O)N1Cc2ccccc2Oc2ccc(Cl)cc21` [Example 6, 8-chlorodibenz[b,f][1,4]oxazepine-10(11H)-carboxylic acid, 2-[1-oxo-3-(2-pyridinyl)propyl]hydrazide], the ED50 ([1]; intragastric administration) was 8.6 mg/kg, the “PBQ WRITHING ASSAY I.G. (Active / *)” value [1] was “Active” and the “PBQ WRITHING ASSAY S.C. (Active / *)” value [1] was “Active”. The Kb ([2]; Schild plot calculation) was 2510 nM and the “PGE ANTAGONISM IN GUINEA PIG ILEUM (Active)” value [2] was “Active”.

For “8-chlorodibenz[b,f][1,4]oxazepine-10(11H)-carboxylic acid, 2-[1-oxo-3-(4-pyridinyl)propyl]hydrazide, monohydrochloride [Example 26]”, the “PBQ WRITHING ASSAY (ED50 (mpk)) I.G.” value ([1]; intragastric administration) was 6.8 mpk, the “PBQ WRITHING ASSAY I.G. (Active / *)” value [1] was “Active” and the “PBQ WRITHING ASSAY (ED50 (mpk)) S.C.” value ([1]; subcutaneous administration) was 6.3 mpk. For the same compound, the “PBQ WRITHING ASSAY S.C. (Active / *)” value [1] was “Active”, the “PGE ANTAGONISM IN GUINEA PIG ILEUM (pA2)” value ([2]; Schild plot calculation) was 6.5 and the “PGE ANTAGONISM IN GUINEA PIG ILEUM (Active)” value [2] was “Active”.

With `O=C(CCCc1cccs1)NNC(=O)N1Cc2ccccc2Oc2ccc(Cl)cc21` [Example 9, 8-chlorodibenz[b,f][1,4]oxazepine-10(11H)-carboxylic acid, 2-[1-oxo-4-(2-thienyl)butyl]hydrazide] the ED50 ([1]; intragastric administration) was 6.8 mg/kg, the “PBQ WRITHING ASSAY I.G. (Active / *)” value [1] was “Active” and the “PBQ WRITHING ASSAY S.C. (Active / *)” value [1] was “Active”. For the same compound, the Kb ([2]; Schild plot calculation) was 25.1 nM and the “PGE ANTAGONISM IN GUINEA PIG ILEUM (Active)” value [2] was “Active”.
